A short description of test [1]: Inhibition of lipid peroxidation in Sprague-Dawley rat heart mitochondria assessed as inhibition of FeSO4-induced oxygen consumption. Type of test: functional.
Test [2] can be described thus: Inhibition of lipid peroxidation in Sprague-Dawley rat heart mitochondria assessed as inhibition of FeSO4-induced malondialdehyde formation. Type of test: functional.
For test [3], the species on record is Rattus norvegicus. In words: Inhibition of lipid peroxidation in Sprague-Dawley rat heart mitochondria assessed as inhibition of FeSO4-induced oxygen consumption up to 0.3 mM relative to control. Type of test: functional. Also on record: scale not given: the % may be the effect or the level left.
Test [4] is filed under the species Rattus norvegicus. Nature of the test: Inhibition of lipid peroxidation in Sprague-Dawley rat heart mitochondria assessed as inhibition of FeSO4-induced malondialdehyde formation up to 0.3 mM relative to control. Type of test: functional. Further details: scale not given: the % may be the effect or the level left.
The subject of the next test is PBMC. Nature of the test: Inhibition of thymidine uptake in phytohemagglutininin-stimulated human PBMC. The class given is functional, cell-based.
The species entered for test [5] is Rattus norvegicus. In words: Antioxidant activity in Sprague-Dawley rat heart mitochondria assessed as inhibition of conjugated diene formation at 1 to 300 uM. The class given is functional.
The subject of test [6] is Radical scavenging activity. Nature of the test: Antioxidant activity assessed as DPPH radical scavenging activity after 90 mins. Type of test: functional. For orientation: DPPH is a stable violet radical that fades when it is reduced.

The source made the active and inactive calls. The calls are words filed in the database; no cut-off is given here.

In the case of `O=C(O[C@@H]1Cc2c(O)cc(O)cc2O[C@@H]1c1ccc(O)c(O)c1)c1cc(O)c(O)c(O)c1` [EPICATECHIN GALLATE], the IC50 – broadly, the concentration that gives 50% inhibition – worked out at 8.4 µM in test [1] and 5.4 µM in test [2].

As for `Nc1cccc2c1C(=O)c1ccccc1C2=O`, the Activity in the test filed under Rattus norvegicus [3] and in the test listed under Rattus norvegicus [4] was less than 50% in each case.

On to `Cc1cc(O)c2c(c1)C(=O)c1cc(O)cc(O[C@@H]3O[C@H](CO)[C@@H](O)[C@H](O)[C@H]3O)c1C2=O`, for which the Activity in the test filed under Rattus norvegicus [3] and in the test filed under Rattus norvegicus [4] was less than 50% in each case.

As for `Nc1ccc2c(c1)C(=O)c1ccccc1C2=O`, the Activity in the test listed under Rattus norvegicus [3] and in the test filed under Rattus norvegicus [4] was less than 50% each time.

With `O=C(O[C@@H]1Cc2c(O)cc(O)cc2O[C@@H]1c1cc(O)c(O)c(O)c1)c1cc(O)c(O)c(O)c1` [EPIGALOCATECHIN GALLATE], the IC50 in test [1] turned out to be 12.2 µM; in test [2], 9.4 µM.

As for `Cc1cc(O)c2c(c1)C(=O)c1cccc(O)c1C2=O`, the Activity in the test listed under Rattus norvegicus [3] and in the test listed under Rattus norvegicus [4] was less than 50% each time.

As to `O=C1OC[C@H]2OC(O)[C@@H]3OC(=O)c4cc(O)c(O)c(O)c4-c4c(cc(O)c(O)c4O)C(=O)O[C@H]3[C@@H]2OC(=O)c2cc(O)c(O)c(O)c2-c2c1cc(O)c(O)c2O` (stereo partly drawn) [PEDUNCULAGIN], the IC50 in test [1] worked out at 7.8 µM; in test [2], 12 µM.

As for `O=C1c2ccccc2C(=O)c2ccccc21`, the Activity in the test listed under Rattus norvegicus [3] and in the test filed under Rattus norvegicus [4] was less than 50% throughout.

As for `O=C1c2ccc(O)cc2C(=O)c2ccc(O)cc21`, the Activity in the test filed under Rattus norvegicus [3] and in the test filed under Rattus norvegicus [4] was less than 50% in each case. Further, the outcome in the test on PBMC was Active.

On to `Cc1cc(O)c2c(c1)C(=O)c1cc(O)cc(O)c1C2=O` [EMODIN], for which the IC50 in test [1] was determined as 12.5 µM; in test [2] it was 16.8 µM. The outcome (in the test filed under Rattus norvegicus [5]; in test [6]) was inactive.

Take `O=C1c2ccccc2C(=O)c2c1ccc(O)c2O` [ATHRAQUINONES A]: the IC50 in test [1] amounted to 63.9 µM; in test [2], 49.5 µM. For the same compound, in test [6], the result was Active.

`COc1cc(O[C@@H]2O[C@H](CO)[C@@H](O)[C@H](O)[C@H]2O)c2c(c1)C(=O)c1cc(C)cc(O)c1C2=O`: the Activity in the test filed under Rattus norvegicus [3] and in the test filed under Rattus norvegicus [4] was less than 50% throughout.

With `O=C1c2cccc(O)c2C(=O)c2cccc(O)c21`, the Activity in the test filed under Rattus norvegicus [3] and in the test listed under Rattus norvegicus [4] was less than 50% each time.

Consider `CCc1ccc2c(c1)C(=O)c1ccccc1C2=O`, for which the Activity in the test filed under Rattus norvegicus [3] and in the test listed under Rattus norvegicus [4] was less than 50% throughout.

Take `COc1cc(O)c2c(c1)C(=O)c1cc(C)cc(O)c1C2=O`: the Activity in the test filed under Rattus norvegicus [3] and in the test listed under Rattus norvegicus [4] was less than 50% in each case.

For `O=C(O)c1ccc2c(c1)C(=O)c1ccccc1C2=O`, the Activity in the test filed under Rattus norvegicus [3] and in the test filed under Rattus norvegicus [4] was less than 50% throughout.

As for `O=C(O[C@@H]1Cc2c(O)cc(O)cc2O[C@H]1c1cc(O)c(O)c(O)c1)c1cc(O)c(O)c(O)c1` [GALLOCATECHIN GALLATE], the IC50 in test [1] came to 14 µM; in test [2], 8.6 µM.

Turning to `Cc1c(C)c2c(c(C)c1O)CC[C@@](C)(CCC[C@H](C)CCC[C@H](C)CCCC(C)C)O2` [ALPHA-TOCOPHEROL], the IC50 in test [1] is 102 µM; in test [2] it was 94.7 µM. In test [6], the outcome was Active.

Turning to `Oc1cc(O)c2c(c1)O[C@H](c1ccc(O)c(O)c1)[C@H](O)[C@H]2c1c(O)cc(O)c2c1O[C@H](c1ccc(O)c(O)c1)[C@H](O)C2` [PROCYANIDIN B2], the IC50 in test [1] came to 11 µM; in test [2] it was 9 µM.

Values taken from ChEMBL document CHEMBL1159287, “Effect of anthraquinone derivatives on lipid peroxidation in rat heart mitochondria: structure-activity relationship” (J Nat Prod, 1995).
